From PubChem BioAssay AID792 (PCMD, 2007) come the findings set out here.

The target in the test is S. cerevisiae eIF2B mutant, luciferase reporter luminescence. Kind of test: eIF2B reporter inhibitors in yeast strains, dose response, S. cerevisiae, mutant, wild-type, luminescence, growth (AID 792).
[1] abbreviates: measured here: mutant yeast growth.
The mark [2] stands for this setting: S. cerevisiae wild-type, luminescence.

One may read the IC50 as the concentration needed to halve the response being measured. In general, pIC50 refers to −log10 of the IC50, conventionally taken in molar units. Lower therefore signals a high IC50.

pIC50: −log10 of the molar value. Inconclusive results are not listed. Active and inactive are the calls of the source. No rule for the calls is given here.

Turning to `CSc1ccccc1NC(=O)c1noc2c1CCC2`, the IC50 is > 100 µM (inactive). In addition, the pIC50 under setting [1] is less than 4.00.
The corresponding values for `Cc1nn(-c2ccccc2)c(Cl)c1/C=N/Nc1ccc(S(=O)(=O)Nc2ccccc2C(=O)O)cc1[N+](=O)[O-]` are > 100 µM (inactive) and less than 4.00.
For `CCCCN(Cc1ccccc1)S(=O)(=O)c1ccc2[nH]c(=O)oc2c1`, the IC50 is > 100 µM (inactive). Also, the pIC50 under setting [1] is less than 4.00.
The corresponding values for `CCCC(CCC(=O)NC1CCCCC1)C(=O)O` (stereo not drawn) are > 100 µM (inactive) and less than 4.00.
The corresponding values for `COc1ccc(C(=O)CSc2nnc(COc3ccccc3)n2Cc2ccco2)cc1` are > 100 µM (inactive) and less than 4.00.
The matching figures for `O=C(NC(Cc1ccccc1)C(=O)OCC(=O)N1CCc2ccccc21)c1ccco1` (stereo not drawn): > 100 µM (inactive) and less than 4.00.
For the compound `CN1CCN(CCC(=O)Nc2ccc3c(c2)OCO3)CC1`, the IC50 was > 100 µM (inactive). The same compound had a negative-log IC50 (pIC50) under setting [1] of less than 4.00.
The corresponding values for `c1ccc(CCc2nc(-c3ccncc3)no2)cc1` are > 100 µM (inactive) and less than 4.00.
The matching figures for `CN1CCN(c2nc(N3CCN(CCO)CC3)nc3ccccc23)CC1`: > 100 µM (inactive) and less than 4.00.
The corresponding values for `COc1ccccc1CNC(=O)CN1CCC(NC(=O)c2ccccc2F)CC1` are > 100 µM (inactive) and less than 4.00.
As for `CC(C)OC(=O)CCc1nc2ccccc2[nH]c1=O`, the IC50 was > 100 µM (inactive). Further, under setting [1], the pIC50 was less than 4.00.
Consider `O=C(CC1Nc2ccccc2NC1=O)NC1CCCCC1` (stereo not drawn), for which the IC50 was > 100 µM (inactive). The compound further showed a negative-log IC50 (pIC50) under setting [1] of less than 4.00.
The matching figures for `COc1ccc(S(=O)(=O)N2CCCCC2C(=O)O)cc1OC` (stereo not drawn): > 100 µM (inactive) and less than 4.00.
The matching figures for `Cc1cc2n(n1)SC(Nc1ccccc1)N2` (stereo not drawn): > 100 µM (inactive) and less than 4.00.
The matching figures for `Cc1cccc(-n2nnc3cnn(C)c3c2=O)c1`: > 100 µM (inactive) and less than 4.00.
Consider `O=C(Nc1cccnc1)c1cc(-c2ccco2)on1`, for which the IC50 was > 100 µM (inactive). Under setting [1], this compound showed a pIC50 of less than 4.00.
The matching figures for `CNC(=O)Cn1nc(-c2ccc(C)c(S(=O)(=O)N(C)C)c2)c2ccccc2c1=O`: > 100 µM (inactive) and less than 4.00.
The corresponding values for `Cc1cccc2cc3c(NC(=O)c4ccccn4)nn(C)c3nc12` are > 100 µM (inactive) and 4.19.
For `CCC(Sc1nc2n[nH]c(C)c2c(=N)n1-c1ccc(C)c(Cl)c1)C(=O)N1CCOCC1` (stereo not drawn), the IC50 was > 100 µM (inactive). This compound also had a negative-log IC50 (pIC50) under setting [1] of less than 4.00.
The corresponding values for `CN1C(=O)N(C)C(=O)C2(Cc3c(nc4ccccn4c3=O)N3CCc4ccccc4C32)C1=O` (stereo not drawn) are > 100 µM (inactive) and less than 4.00.
The corresponding values for `Cc1cccc(-c2nnc(SCC#N)n2Cc2ccccc2)c1` are > 100 µM (inactive) and less than 4.00.
Regarding `O=C(Nc1cccnc1)c1noc2c1CCCCC2`, the IC50 entry was “inactive”. Besides, the pIC50 under setting [2] was 4.01. This compound also showed a negative logarithm of the IC50 (pIC50) under setting [1] of less than 4.00.
As to `CCCC1CC(C)(c2csc(Nc3ccc(OCC)cc3)n2)OC1=O` (stereo not drawn), the IC50 was > 100 µM (inactive). Also, the negative logarithm of the IC50 (pIC50) under setting [1] is less than 4.00.
The corresponding values for `CC(=O)Nc1ccc(C(=O)NC2CCCC2)cc1` are > 100 µM (inactive) and less than 4.00.
The matching figures for `O=C(CSc1nccc(=O)[nH]1)N1CCCc2ccccc21`: > 100 µM (inactive) and less than 4.00.
The matching figures for `O=C(CCN1CCN(C(=O)c2ccco2)CC1)Nc1ccc(F)cc1`: > 100 µM (inactive) and less than 4.00.
Consider `Cc1cccc2nc(CSc3nnc4ccccn34)cn12`, for which the IC50 is > 100 µM (inactive). This compound also showed a pIC50 under setting [1] of less than 4.00.
The matching figures for `COc1ccc(C2SCC(=O)Nc3c2c(C)nn3C2CCOC(C)(C)C2)cc1` (stereo not drawn): > 100 µM (inactive) and less than 4.00.
The matching figures for `COC(=O)c1sc(NC(=O)COc2cccc3ccccc23)nc1C`: > 100 µM (inactive) and less than 4.00.
The matching figures for `O=C(NC1CCCC1)C(c1ccccc1)N(Cc1ccco1)C(=O)Cc1cccs1` (stereo not drawn): > 100 µM (inactive) and less than 4.00.
For `Oc1cc(Cc2ccccc2)cnc1CN1CCCCC1`, the IC50 was > 100 µM (inactive). Besides, under setting [1], the pIC50 was less than 4.00.
Turning to `COc1ccccc1NC(=S)NNC(=O)c1ccccc1`, the IC50 was > 100 µM (inactive). Also, under setting [1], the negative logarithm of the IC50 (pIC50) was less than 4.00.
The corresponding values for `O=C1CNC(=O)N1Cc1ccc(Br)cc1` are > 100 µM (inactive) and less than 4.00.
Turning to `Cc1cc(=O)[nH]c(N=N/C(=N/Nc2ccc(O)cc2)c2ccccc2)n1`, the IC50 entry was “inactive”. The compound also had a negative-log IC50 (pIC50) under setting [2] of 4.34. Under setting [1], this compound had a negative logarithm of the IC50 (pIC50) of less than 4.00.
On to `Cc1cccn2c(=O)c3cc(C(=O)N4c5ccccc5CC4C)n(C)c3nc12` (stereo not drawn), for which the IC50 is > 100 µM (inactive). In addition, under setting [1], the negative logarithm of the IC50 (pIC50) is less than 4.00.
In the case of `CCOCCCNC(=O)c1c[nH]c2ccc(C)cc2c1=O`, the IC50 was > 100 µM (inactive). Under setting [1], this compound had a pIC50 of less than 4.00.
The matching figures for `COc1ccc(CC(=O)Nc2ccc(N3CCN(c4ccc(OC)cc4)CC3)c(C#N)c2)cc1`: > 100 µM (inactive) and less than 4.00.
The corresponding values for `O=C(OCCn1cncn1)c1cc2ccccc2oc1=O` are > 100 µM (inactive) and less than 4.00.
The matching figures for `CCOC(=O)N1CCN(C(=O)COc2cc(=O)n(CC)c3ccccc23)CC1`: > 100 µM (inactive) and less than 4.00.
For `CN(C)c1nc(N(C)C)nc(N(C#N)CCOc2ccccc2)n1`, the IC50 is > 100 µM (inactive). The negative-log IC50 (pIC50) under setting [1] was less than 4.00.
Turning to `Oc1ccccc1C1=Nc2ncnn2C(c2ccc(F)cc2)C1` (stereo not drawn), the IC50 is > 100 µM (inactive). This compound gave a pIC50 under setting [1] of less than 4.00.
In the case of `CCN(CC)c1ccc(NC(=O)c2cccc(OC)c2)c(C)c1`, the IC50 entry was “inactive”. The compound further had a negative-log IC50 (pIC50) under setting [2] of less than 4.00. This compound showed a negative-log IC50 (pIC50) under setting [1] of less than 4.00.
As to `COC(=O)Cc1c(C)c2cc(Cl)c(OC(=O)c3ccco3)cc2oc1=O`, the IC50 was > 100 µM (inactive). This compound had a pIC50 under setting [1] of less than 4.00.
In the case of `CCCC(=O)Nc1sc(C(=O)OC)c(C)c1C(N)=O`, the IC50 was > 100 µM (inactive). Under setting [1], the pIC50 is less than 4.00.
The matching figures for `CCCc1nc(-c2ccccc2O)n(-c2ccccc2)n1`: > 100 µM (inactive) and less than 4.00.
As for `COc1ccc(OC)c2c(N3CCN(C)CC3)cc(C(F)(F)F)nc12`, the IC50 is > 100 µM (inactive). In addition, the negative-log IC50 (pIC50) under setting [1] was less than 4.00.
For the compound `Cn1c(SC2C(=O)CC(C)(C)CC2=O)nnc1-c1ccco1`, the IC50 was > 100 µM (inactive). Under setting [1], this compound had a pIC50 of less than 4.00.
The corresponding values for `CCOC(=O)C1CCN(c2ncnc3c2oc2ccccc23)CC1` are > 100 µM (inactive) and less than 4.00.
Regarding `O=C1CC(O)(C(F)F)Oc2ccc3ccccc3c21` (stereo not drawn), the IC50 is > 100 µM (inactive). This compound gave a pIC50 under setting [1] of less than 4.00.
The matching figures for `COc1cccc(-n2c(C)nnc2SCC(=O)Nc2ccccc2N2CCOCC2)c1`: > 100 µM (inactive) and less than 4.00.
The matching figures for `CCN(C(C)=O)c1nc(CSc2nnc(NC(C)C)s2)cs1`: > 100 µM (inactive) and less than 4.00.
The corresponding values for `N#Cc1cc2ccccc2nc1SCc1cccnc1` are > 100 µM (inactive) and less than 4.00.
On to `COc1ccccc1-n1nc(C(=O)Nc2ccc3c(c2)OCO3)c2ccccc2c1=O`, for which the IC50 is > 100 µM (inactive). For the same compound, the pIC50 under setting [1] was less than 4.00.
The corresponding values for `O=C(Nc1nnc(COc2ccc(Cl)cc2)s1)c1cccs1` are > 100 µM (inactive) and less than 4.00.
In the case of `COc1ccc(-c2cc3nc(C)cc(N)n3n2)cc1`, the IC50 entry was “inactive”. This compound had a negative-log IC50 (pIC50) under setting [2] of 5.41. The compound also had a pIC50 under setting [1] of less than 4.00.
As to `CCOc1cc(-c2nc(-c3ccc(C)nc3OCC)no2)cc(OCC)c1OCC`, the IC50 was > 100 µM (inactive). The same compound had a negative-log IC50 (pIC50) under setting [1] of less than 4.00.
Take `CC(NC(=O)Nc1ccc(F)cc1F)c1ccncc1` (stereo not drawn): the IC50 was > 100 µM (inactive). In addition, the pIC50 under setting [1] was less than 4.00.
Consider `O=C(Nc1ccc(Cl)cn1)c1ccccc1F`, for which the IC50 was > 100 µM (inactive). Moreover, the negative logarithm of the IC50 (pIC50) under setting [1] is less than 4.00.
The corresponding values for `O=C(Nc1nc(-c2ccc(S(=O)(=O)N3CCCCCC3)cc2)cs1)c1cccs1` are > 100 µM (inactive) and less than 4.00.
The corresponding values for `O=C(CCS(=O)CCC(=O)NCc1ccccc1)NCc1ccccc1` are > 100 µM (inactive) and less than 4.00.
The corresponding values for `CC(=O)c1cnc2c(-c3ccc(Cl)cc3)c(C)nn2c1C` are > 100 µM (inactive) and less than 4.00.
In the case of `CCOc1ccccc1NC(=O)c1ccccc1-c1nc(-c2ccccc2)no1`, the IC50 is > 100 µM (inactive). The negative logarithm of the IC50 (pIC50) under setting [1] was less than 4.00.
The corresponding values for `CNC(=O)CSc1nc(N)c2c3c(sc2n1)CCC3` are > 100 µM (inactive) and less than 4.00.
Turning to `Cc1[nH]c(=O)c(C#N)c2c1CSC(C)(C)C2`, the IC50 is > 100 µM (inactive). The same compound had a pIC50 under setting [1] of less than 4.00.
The matching figures for `CCOC(=O)N1CCN(C(=O)c2nn(-c3cc(OC)cc(OC)c3)c(=O)c3ccccc23)CC1`: > 100 µM (inactive) and less than 4.00.
In the case of `CCOC(=O)CC1=NC(=O)CS1`, the IC50 is > 100 µM (inactive). Besides, the pIC50 under setting [1] was less than 4.00.
The matching figures for `COCc1cc(=O)[nH]c(Nc2nc3ccc(C)cc3o2)n1`: > 100 µM (inactive) and less than 4.00.
